Assay results: patent publication US20240366813A1, “PEPTIDE-UREA DERIVATIVE, PHARMACEUTICAL COMPOSITION CONTAINING SAME AND APPLICATION THEREOF” (Bivision Pharmaceuticals, Inc., priority 0001, published 2024)
“And” between values parts separate entries of the source, which are not always exact repeats. Equal entries are not always repeated.

Tests used:
[1] = system: PSMA-positive cells LNCap; experiment: Uptake of labeled compounds by PSMA-positive cells LNCap; assay type: cell-based; conditions: 37° C., 0.5 h
Procedure: LNCap cells (Shangcheng Beina Chuanglian Biotechnology Co., Ltd., Industrial Park, Chengguan Town, Shangcheng County, Xinyang City, Henan Province) were revived and passaged for expansion. After the cells were expanded to a sufficient amount, cells were seeded in a 24-well plate at a density of 1×10^4 cells/well. Uptake tests were performed when cells grew to 80%-90% confluence.
The above labeled compounds ^177Lu-E1, ^177Lu-E2, ^177Lu-E3, ^177Lu-E5, ^177Lu-E9, ^177Lu-E14 and ^177Lu-PSMA-617 were diluted with serum-free medium into 10000, 1000, 100, 10, 1, 0.1 and 0 nM. 1 mL of the diluted solution was added to a 24-well plate, and incubated at 37° C. for 0.5 h. The supernatant was discarded and the cells were washed 3 times with PBS. 250 μL of 1M NaOH solution was added to each well. The cells were pipetted until they were completely dissolved, and transferred to a scintillation vial. 250 μL of NaOH solution was added to each well again to wash the bottom of the well and transferred to a scintillation vial. 2 mL of scintillation fluid was added to each scintillation vial and shaken well. A liquid scintillation counter was used to detect radioactive counts in each vial.

[2] = In vivo metabolism test of 177Lu-labeled complex in SD rats (plasma radioactive counts); conditions: for plasma radioactive counts: individual rat, 100 μL plasma; for plasma radioactive counts, MEAN: mean of rats
Procedure: Eighteen SD rats (Hangzhou Ziyuan Experimental Animal Technology Co., Ltd.), male, weighing 180-200 g, were randomly divided into 6 groups, 3 rats in each group. […] of the labeled precursor compound was injected into the tail vein of each mouse. 250 μL of orbital blood was collected into anticoagulant tubes at 5 min, 0.5 h, 1 h, 2 h, 4 h, 8 h and 24 h after administration. Blood was centrifuged at 3000 rpm for 10 min, and 100 μL of plasma was taken into scintillation vials. 2 mL of scintillation fluid was added to each scintillation vial and shaken well. A liquid scintillation counter was used to detect radioactive counts in each vial.

[3] = system: LNCaP PSMA-positive tumors; experiment: SPECT imaging in mice carrying LNCaP PSMA-positive tumors; assay type: in vivo; conditions: 100 μCi tail vein
Procedure: 100 μCi of ^177Lu-labeled ^177Lu-E3 and ^177Lu-PSMA-617 were injected into mice carrying LNCaP PSMA-positive tumors (Jiangsu Huajing Molecular Imaging and Drug Research Institute Co., Ltd.) through the tail vein respectively. Mice were anesthetized with 2% isoflurane/98% oxygen for SPECT image contrast study.

22rv1 xenograft tumor = experiment: Pharmacodynamic study in 22rv1 mouse xenograft tumor model (effect example 11); assay type: in vivo, mice; conditions: over the two dose groups
[4] = 5 min after tail vein injection
[5] = 0.5 h after tail vein injection

SMILES: O=C([O-])CN1CCN(CC(=O)[O-])CCN(CC(=O)Nc2nc3cc(C(=O)NC(Cc4ccc5ccccc5c4)C(=O)NCCCCC(NC(=O)NC(CCC(=O)O)C(=O)O)C(=O)O)ccc3s2)CCN(CC(=O)[O-])CC1.[177Lu+3] (stereo not drawn) [^177Lu-E1]
- uptake by LNCap cells ([1]; 0.1 nM): 39 cpm
- uptake by LNCap cells ([1]; 1 nM): 169 cpm
- uptake by LNCap cells ([1]; 10 nM): 77 cpm
- uptake by LNCap cells ([1]; 100 nM): 121 cpm
- uptake by LNCap cells ([1]; 1000 nM): 331 cpm
- uptake by LNCap cells ([1]; 10000 nM): 1595 cpm
- plasma radioactive counts [2, 4]: 28305 cpm and 17143 cpm
- plasma radioactive counts [2, 5]: 9829 cpm and 8252 cpm
- plasma radioactive counts ([2]; 1 h after tail vein injection): 3505 cpm and 3389 cpm
- plasma radioactive counts ([2]; 2 h after tail vein injection): 615 cpm and 1288 cpm
- plasma radioactive counts ([2]; 4 h after tail vein injection): 163 cpm and 315 cpm
- plasma radioactive counts ([2]; 8 h after tail vein injection): 174 cpm and 179 cpm
- plasma radioactive counts ([2]; 24 h after tail vein injection): 151 cpm and 169 cpm
- plasma radioactive counts, MEAN [2, 4]: 22724 cpm
- plasma radioactive counts, MEAN [2, 5]: 9041 cpm
- plasma radioactive counts, MEAN ([2]; 1 h after tail vein injection): 3447 cpm
- plasma radioactive counts, MEAN ([2]; 2 h after tail vein injection): 952 cpm
- plasma radioactive counts, MEAN ([2]; 4 h after tail vein injection): 239 cpm
- plasma radioactive counts, MEAN ([2]; 8 h after tail vein injection): 177 cpm
- plasma radioactive counts, MEAN ([2]; 24 h after tail vein injection): 160 cpm

SMILES: O=C([O-])CN1CCN(CC(=O)[O-])CCN(CC(=O)N2CCC3(CCC(C(=O)NC(Cc4ccc5ccccc5c4)C(=O)NCCCCC(NC(=O)NC(CCC(=O)O)C(=O)O)C(=O)O)CC3)CC2)CCN(CC(=O)[O-])CC1.[177Lu+3] (stereo not drawn) [^177Lu-E9]
- uptake by LNCap cells ([1]; 0.1 nM): 56 cpm
- uptake by LNCap cells ([1]; 1 nM): 55 cpm
- uptake by LNCap cells ([1]; 10 nM): 84 cpm
- uptake by LNCap cells ([1]; 100 nM): 140 cpm
- uptake by LNCap cells ([1]; 1000 nM): 405 cpm
- uptake by LNCap cells ([1]; 10000 nM): 1194 cpm
- plasma radioactive counts [2, 4]: 30764 cpm and 38134 cpm and 30001 cpm
- plasma radioactive counts [2, 5]: 10391 cpm and 12249 cpm and 8575 cpm
- plasma radioactive counts ([2]; 1 h after tail vein injection): 4483 cpm and 4139 cpm and 2519 cpm
- plasma radioactive counts ([2]; 2 h after tail vein injection): 892 cpm and 652 cpm and 346 cpm
- plasma radioactive counts ([2]; 4 h after tail vein injection): 210 cpm and 196 cpm and 197 cpm
- plasma radioactive counts ([2]; 8 h after tail vein injection): 171 cpm and 184 cpm and 161 cpm
- plasma radioactive counts ([2]; 24 h after tail vein injection): 164 cpm and 162 cpm and 183 cpm
- plasma radioactive counts, MEAN [2, 4]: 32966 cpm
- plasma radioactive counts, MEAN [2, 5]: 10405 cpm
- plasma radioactive counts, MEAN ([2]; 1 h after tail vein injection): 3714 cpm
- plasma radioactive counts, MEAN ([2]; 2 h after tail vein injection): 630 cpm
- plasma radioactive counts, MEAN ([2]; 4 h after tail vein injection): 201 cpm
- plasma radioactive counts, MEAN ([2]; 8 h after tail vein injection): 172 cpm
- plasma radioactive counts, MEAN ([2]; 24 h after tail vein injection): 170 cpm

SMILES: O=C([O-])CN1CCN(CC(=O)[O-])CCN(CC(=O)N2CC3(CCC(C(=O)NC(Cc4ccc5ccccc5c4)C(=O)NCCCCC(NC(=O)NC(CCC(=O)O)C(=O)O)C(=O)O)CC3)C2)CCN(CC(=O)[O-])CC1.[177Lu+3] (stereo not drawn) [^177Lu-E2]
- uptake by LNCap cells ([1]; 0.1 nM): 29 cpm
- uptake by LNCap cells ([1]; 1 nM): 91 cpm
- uptake by LNCap cells ([1]; 10 nM): 344 cpm
- uptake by LNCap cells ([1]; 100 nM): 596 cpm
- uptake by LNCap cells ([1]; 1000 nM): 775 cpm
- uptake by LNCap cells ([1]; 10000 nM): 1328 cpm
- plasma radioactive counts [2, 4]: 37703 cpm and 41406 cpm
- plasma radioactive counts [2, 5]: 18427 cpm and 15030 cpm
- plasma radioactive counts ([2]; 1 h after tail vein injection): 7473 cpm and 5428 cpm
- plasma radioactive counts ([2]; 2 h after tail vein injection): 1863 cpm and 1189 cpm
- plasma radioactive counts ([2]; 4 h after tail vein injection): 296 cpm and 219 cpm
- plasma radioactive counts ([2]; 8 h after tail vein injection): 178 cpm and 190 cpm
- plasma radioactive counts ([2]; 24 h after tail vein injection): 167 cpm and 170 cpm
- plasma radioactive counts, MEAN [2, 4]: 39555 cpm
- plasma radioactive counts, MEAN [2, 5]: 16729 cpm
- plasma radioactive counts, MEAN ([2]; 1 h after tail vein injection): 6451 cpm
- plasma radioactive counts, MEAN ([2]; 2 h after tail vein injection): 1526 cpm
- plasma radioactive counts, MEAN ([2]; 4 h after tail vein injection): 258 cpm
- plasma radioactive counts, MEAN ([2]; 8 h after tail vein injection): 184 cpm
- plasma radioactive counts, MEAN ([2]; 24 h after tail vein injection): 169 cpm

SMILES: O=C([O-])CN1CCN(CC(=O)[O-])CCN(CC(=O)NC23CC(C(=O)NC(Cc4ccc5ccccc5c4)C(=O)NCCCCC(NC(=O)NC(CCC(=O)O)C(=O)O)C(=O)O)(C2)C3)CCN(CC(=O)[O-])CC1.[177Lu+3] (stereo not drawn) [^177Lu-E14]
- uptake by LNCap cells ([1]; 0.1 nM): 28 cpm
- uptake by LNCap cells ([1]; 1 nM): 82 cpm
- uptake by LNCap cells ([1]; 10 nM): 220 cpm
- uptake by LNCap cells ([1]; 100 nM): 345 cpm
- uptake by LNCap cells ([1]; 1000 nM): 479 cpm
- uptake by LNCap cells ([1]; 10000 nM): 362 cpm
- plasma radioactive counts [2, 4]: 42150 cpm and 41058 cpm and 45756 cpm
- plasma radioactive counts [2, 5]: 18047 cpm and 18268 cpm and 18614 cpm
- plasma radioactive counts ([2]; 1 h after tail vein injection): 7200 cpm and 6304 cpm and 6154 cpm
- plasma radioactive counts ([2]; 2 h after tail vein injection): 1415 cpm and 1686 cpm and 1863 cpm
- plasma radioactive counts ([2]; 4 h after tail vein injection): 203 cpm and 198 cpm and 259 cpm
- plasma radioactive counts ([2]; 8 h after tail vein injection): 201 cpm and 206 cpm and 203 cpm
- plasma radioactive counts ([2]; 24 h after tail vein injection): 196 cpm and 175 cpm and 159 cpm
- plasma radioactive counts, MEAN [2, 4]: 42988 cpm
- plasma radioactive counts, MEAN [2, 5]: 18310 cpm
- plasma radioactive counts, MEAN ([2]; 1 h after tail vein injection): 6553 cpm
- plasma radioactive counts, MEAN ([2]; 2 h after tail vein injection): 1655 cpm
- plasma radioactive counts, MEAN ([2]; 4 h after tail vein injection): 220 cpm
- plasma radioactive counts, MEAN ([2]; 8 h after tail vein injection): 203 cpm
- plasma radioactive counts, MEAN ([2]; 24 h after tail vein injection): 177 cpm

SMILES: O=C([O-])CN1CCN(CC(=O)[O-])CCN(CC(=O)NCC2CCC(C(=O)N[C@@H](Cc3ccc4ccccc4c3)C(=O)NCCCC[C@H](NC(=O)N[C@@H](CCC(=O)O)C(=O)O)C(=O)O)CC2)CCN(CC(=O)[O-])CC1.[177Lu+3] (stereo partly drawn) [^177Lu-PSMA-617, reference compound]
- Heart, Averaged ([3]; 1 h): 1.59 % ID/cc
- Kidney, Averaged ([3]; 1 h): 58.17 % ID/cc
- Liver, Averaged ([3]; 1 h): 1.61 % ID/cc
- Lung, Averaged ([3]; 1 h): 3.30 % ID/cc
- Tumor, Averaged ([3]; 1 h): 19.42 % ID/cc
- Heart, Averaged ([3]; 4 h): 1.47 % ID/cc
- Kidney, Averaged ([3]; 4 h): 8.37 % ID/cc
- Liver, Averaged ([3]; 4 h): 1.27 % ID/cc
- Lung, Averaged ([3]; 4 h): 1.54 % ID/cc
- Tumor, Averaged ([3]; 4 h): 10.68 % ID/cc
- Heart, Averaged ([3]; 8 h): 0.53 % ID/cc
- Kidney, Averaged ([3]; 8 h): 4.35 % ID/cc
- Liver, Averaged ([3]; 8 h): 1.04 % ID/cc
- Lung, Averaged ([3]; 8 h): 0.86 % ID/cc
- Tumor, Averaged ([3]; 8 h): 9.4 % ID/cc
- Heart, Averaged ([3]; 1 d): 1.45 % ID/cc
- Kidney, Averaged ([3]; 1 d): 1.16 % ID/cc
- Liver, Averaged ([3]; 1 d): 1.43 % ID/cc
- Lung, Averaged ([3]; 1 d): 0.85 % ID/cc
- Tumor, Averaged ([3]; 1 d): 2.19 % ID/cc
- Heart, Averaged ([3]; 3 d): 0.46 % ID/cc
- Kidney, Averaged ([3]; 3 d): 1.55 % ID/cc
- Liver, Averaged ([3]; 3 d): 0.96 % ID/cc
- Lung, Averaged ([3]; 3 d): 3.74 % ID/cc
- Tumor, Averaged ([3]; 3 d): 4.76 % ID/cc
- uptake by LNCap cells ([1]; 0.1 nM): 49 cpm
- uptake by LNCap cells ([1]; 1 nM): 67 cpm
- uptake by LNCap cells ([1]; 10 nM): 225 cpm
- uptake by LNCap cells ([1]; 100 nM): 389 cpm
- uptake by LNCap cells ([1]; 1000 nM): 599 cpm
- uptake by LNCap cells ([1]; 10000 nM): 1625 cpm
- tumor growth inhibition rate (22rv1 xenograft tumor): 15-21%
- plasma radioactive counts [2, 4]: 24449 cpm and 23276 cpm and 22010 cpm
- plasma radioactive counts [2, 5]: 9783 cpm and 13738 cpm and 14589 cpm
- plasma radioactive counts ([2]; 1 h after tail vein injection): 3865 cpm and 6988 cpm and 7736 cpm
- plasma radioactive counts ([2]; 2 h after tail vein injection): 679 cpm and 1346 cpm and 1544 cpm
- plasma radioactive counts ([2]; 4 h after tail vein injection): 207 cpm and 219 cpm and 225 cpm
- plasma radioactive counts ([2]; 8 h after tail vein injection): 188 cpm and 187 cpm and 170 cpm
- plasma radioactive counts ([2]; 24 h after tail vein injection): 173 cpm and 176 cpm and 178 cpm
- plasma radioactive counts, MEAN [2, 4]: 23245 cpm
- plasma radioactive counts, MEAN [2, 5]: 12703 cpm
- plasma radioactive counts, MEAN ([2]; 1 h after tail vein injection): 6196 cpm
- plasma radioactive counts, MEAN ([2]; 2 h after tail vein injection): 1190 cpm
- plasma radioactive counts, MEAN ([2]; 4 h after tail vein injection): 217 cpm
- plasma radioactive counts, MEAN ([2]; 8 h after tail vein injection): 182 cpm
- plasma radioactive counts, MEAN ([2]; 24 h after tail vein injection): 176 cpm
